Assay results: ChEMBL document CHEMBL1201862, “PubChem BioAssay data set” (2004)
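Values below derive from 48-hour exposures of cells grown in 96-well plates, with endpoints linearly interpolated between the two concentrations bracketing the appropriate inhibition level. GI50: concentration for 50% inhibition of growth.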 Activity calls are given as the source filed them. Cut-off read from the data, not from the text of the source: active = GI50 up to about 1.1 µM and inactive = higher.

Experiments:
Assay in all cases: NCI-60 cell line screen, 48 h
M14 = tested on: M14
A498 = tested on: A498
NCI-H460 = tested on: NCI-H460
COLO 205 = tested on: COLO 205
EKVX = tested on: EKVX
NCI-H226 = tested on: NCI-H226
CCRF-CEM = tested on: CCRF-CEM
T47D = tested on: T47D
SW-620 = tested on: SW-620
HOP-92 = tested on: HOP-92
MDA-MB-435 = tested on: MDA-MB-435
KM12 = tested on: KM12
NCI/ADR-RES = tested on: NCI/ADR-RES
HCT-116 = tested on: HCT-116
RPMI-8226 = tested on: RPMI-8226
SNB-19 = tested on: SNB-19
SNB-75 = tested on: SNB-75
BT-549 = tested on: BT-549
MDA-N = tested on: MDA-N
HCT-15 = tested on: HCT-15
U-251 = tested on: U-251
TK-10 = tested on: TK-10
RXF 393 = tested on: RXF 393
SR = tested on: SR
OVCAR-4 = tested on: OVCAR-4
SF-539 = tested on: SF-539
OVCAR-3 = tested on: OVCAR-3
SK-MEL-2 = tested on: SK-MEL-2
HL-60 = tested on: HL-60
SK-MEL-5 = tested on: SK-MEL-5
SN12C = tested on: SN12C
IGROV-1 = tested on: IGROV-1
UACC-62 = tested on: UACC-62
MOLT-4 = tested on: MOLT-4
LOX IMVI = tested on: LOX IMVI
MDA-MB-231 = tested on: MDA-MB-231
NCI-H23 = tested on: NCI-H23
NCI-H522 = tested on: NCI-H522
CAKI-1 = tested on: CAKI-1
MCF7 = tested on: MCF7
ACHN = tested on: ACHN
A549 = tested on: A549
HCC 2998 = tested on: HCC 2998
SK-MEL-28 = tested on: SK-MEL-28
Malme-3M = tested on: Malme-3M
786-0 = tested on: 786-0
HT-29 = tested on: HT-29
SF-295 = tested on: SF-295
Hs-578T = tested on: Hs-578T
OVCAR-5 = tested on: OVCAR-5
SF-268 = tested on: SF-268
UO-31 = tested on: UO-31
PC-3 = tested on: PC-3
K562 = tested on: K562
DU-145 = tested on: DU-145
UACC-257 = tested on: UACC-257
OVCAR-8 = tested on: OVCAR-8
HOP-62 = tested on: HOP-62
SK-OV-3 = tested on: SK-OV-3

Measured: GI50

COc1ccc2c(c1)CC[C@@H]1[C@@H]2CC[C@]2(C)/C(=N/OCCN3CCCC3)CC[C@@H]12
1.25 µM: HCT-15
inactive: M14 1.27 µM | A498 3.8 µM | NCI-H460 1.5 µM | COLO 205 1.67 µM | EKVX 4.57 µM | NCI-H226 1.95 µM | CCRF-CEM 1.49 µM | T47D 3.21 µM | SW-620 1.95 µM | HOP-92 2.49 µM | KM12 2.42 µM | NCI/ADR-RES 8.61 µM | HCT-116 1.78 µM | RPMI-8226 1.5 µM | SNB-19 11.1 µM | SNB-75 3 µM | BT-549 8.07 µM | MDA-N 1.98 µM | U-251 3.46 µM | TK-10 6.47 µM | RXF 393 1.92 µM | SR 1.97 µM | OVCAR-4 12 µM | SF-539 1.9 µM | OVCAR-3 5.82 µM | SK-MEL-2 1.82 µM | HL-60 1.21 µM | SK-MEL-5 1.9 µM | SN12C 6.52 µM | IGROV-1 4.51 µM | UACC-62 1.82 µM | MOLT-4 1.93 µM | LOX IMVI 1.57 µM | MDA-MB-231 3.83 µM | NCI-H23 5.94 µM | NCI-H522 3 µM | CAKI-1 1.75 µM | MCF7 3.03 µM | ACHN 4.45 µM | A549 2.78 µM | HCC 2998 1.85 µM | SK-MEL-28 1.39 µM | Malme-3M 1.63 µM | 786-0 1.75 µM | SF-295 2.35 µM | Hs-578T 2.65 µM | OVCAR-5 2.79 µM | SF-268 4.07 µM | UO-31 2.81 µM | PC-3 3.85 µM | DU-145 3.94 µM | UACC-257 1.75 µM | OVCAR-8 3.81 µM | HOP-62 1.98 µM
active: MDA-MB-435 0.91 µM | HT-29 0.766 µM | K562 0.76 µM

CO[C@@H]1C[C@H]2[C@@H]3CC[C@H]([C@H](C)CO)[C@@]3(C)CC[C@@H]2[C@@]2(C)CC[C@H]3C[C@]312
34 µM: HCT-15
inactive: M14 32.4 µM | A498 80.4 µM | NCI-H460 26.7 µM | COLO 205 20.1 µM | EKVX 12.5 µM | NCI-H226 28.1 µM | T47D 24.8 µM | SW-620 70.3 µM | HOP-92 21 µM | MDA-MB-435 37.8 µM | KM12 15.9 µM | NCI/ADR-RES 34.3 µM | HCT-116 30.2 µM | RPMI-8226 18.3 µM | SNB-19 67.6 µM | SNB-75 89.9 µM | BT-549 13.3 µM | MDA-N 39.8 µM | U-251 27.6 µM | TK-10 > 100 µM | RXF 393 26.2 µM | SR 37.5 µM | OVCAR-4 55.8 µM | SF-539 45.7 µM | OVCAR-3 > 100 µM | HL-60 20.7 µM | SK-MEL-5 30.4 µM | SN12C 53.7 µM | IGROV-1 84.7 µM | MOLT-4 32.5 µM | LOX IMVI 18.8 µM | MDA-MB-231 31.6 µM | NCI-H23 55.7 µM | NCI-H522 56 µM | CAKI-1 5.08 µM | MCF7 19.2 µM | ACHN 33.2 µM | A549 69 µM | HCC 2998 36.1 µM | SK-MEL-28 46.9 µM | Malme-3M > 100 µM | 786-0 62.5 µM | HT-29 20.7 µM | SF-295 28.5 µM | Hs-578T 43.4 µM | OVCAR-5 > 100 µM | SF-268 35.7 µM | UO-31 53.1 µM | PC-3 27.6 µM | K562 26 µM | DU-145 > 100 µM | UACC-257 35.6 µM | OVCAR-8 49 µM | HOP-62 > 100 µM

CC(C)/C=N\n1c(N)c(C#N)c(C#N)c1C(C)C
24.3 µM: HCT-15
active: SR 0.951 µM
inactive: M14 22.2 µM | A498 17.5 µM | COLO 205 18.7 µM | EKVX 20.4 µM | NCI-H226 14.7 µM | CCRF-CEM 19.9 µM | T47D 16.5 µM | SW-620 38.1 µM | HOP-92 13 µM | MDA-MB-435 31.3 µM | KM12 27 µM | NCI/ADR-RES 23.3 µM | HCT-116 24.5 µM | SK-OV-3 45.1 µM | RPMI-8226 14.6 µM | SNB-19 34.9 µM | SNB-75 4.67 µM | BT-549 24.2 µM | MDA-N 18.6 µM | U-251 28.9 µM | TK-10 22.5 µM | RXF 393 18.1 µM | OVCAR-4 18.2 µM | SF-539 18.9 µM | OVCAR-3 11.7 µM | SK-MEL-2 18.2 µM | HL-60 26.1 µM | SK-MEL-5 15.7 µM | SN12C 28.6 µM | IGROV-1 18.3 µM | UACC-62 12.3 µM | MOLT-4 13.5 µM | LOX IMVI 19 µM | MDA-MB-231 19.4 µM | NCI-H23 24 µM | NCI-H522 19.3 µM | CAKI-1 20.5 µM | MCF7 38.5 µM | ACHN 20.3 µM | A549 25.2 µM | HCC 2998 13.4 µM | Malme-3M 22.8 µM | 786-0 40.2 µM | HT-29 33.3 µM | SF-295 16.8 µM | Hs-578T 20.4 µM | OVCAR-5 21.7 µM | SF-268 28.1 µM | UO-31 15.8 µM | PC-3 17.1 µM | K562 24 µM | DU-145 35.6 µM | UACC-257 14.7 µM | OVCAR-8 20.3 µM | HOP-62 31.1 µM

O=C1OC[C@@H]2[C@@H](O)CCCCCN12
inactive: A498 > 100 µM | NCI-H460 > 100 µM | COLO 205 > 100 µM | EKVX > 100 µM | NCI-H226 > 100 µM | CCRF-CEM > 100 µM | T47D > 100 µM | SW-620 > 100 µM | HOP-92 > 100 µM | MDA-MB-435 > 100 µM | KM12 > 100 µM | NCI/ADR-RES > 100 µM | HCT-116 > 100 µM | SK-OV-3 > 100 µM | RPMI-8226 > 100 µM | SNB-19 > 100 µM | SNB-75 > 100 µM | BT-549 > 100 µM | MDA-N > 100 µM | U-251 > 100 µM | TK-10 > 100 µM | RXF 393 > 100 µM | SR > 100 µM | OVCAR-4 > 100 µM | SF-539 > 100 µM | OVCAR-3 > 100 µM | SK-MEL-2 > 100 µM | HL-60 > 100 µM | SK-MEL-5 > 100 µM | SN12C > 100 µM | IGROV-1 > 100 µM | UACC-62 > 100 µM | MOLT-4 > 100 µM | LOX IMVI > 100 µM | MDA-MB-231 > 100 µM | NCI-H522 > 100 µM | CAKI-1 > 100 µM | MCF7 > 100 µM | ACHN > 100 µM | A549 > 100 µM | HCC 2998 > 100 µM | SK-MEL-28 > 100 µM | 786-0 > 10 µM | HT-29 > 100 µM | SF-295 > 100 µM | Hs-578T > 100 µM | OVCAR-5 > 100 µM | UO-31 > 100 µM | PC-3 > 100 µM | K562 > 100 µM | DU-145 > 100 µM | UACC-257 > 100 µM | OVCAR-8 > 100 µM | HOP-62 > 100 µM
> 100 µM: HCT-15

C=C1CC(Cn2cc(C)c(=O)[nH]c2=O)(c2ccc(-c3ccccc3)cc2)OC1=O (stereo not drawn)
inactive: A498 3.34 µM | NCI-H460 6.95 µM | EKVX 6.62 µM | NCI-H226 14.3 µM | T47D 1.99 µM | HOP-92 1.95 µM | MDA-MB-435 1.8 µM | KM12 2.31 µM | NCI/ADR-RES 1.33 µM | SK-OV-3 6.53 µM | SNB-19 13.8 µM | SNB-75 7.87 µM | BT-549 1.46 µM | MDA-N 1.33 µM | U-251 10.6 µM | TK-10 1.4 µM | OVCAR-4 2.49 µM | SF-539 2.07 µM | OVCAR-3 1.21 µM | SK-MEL-2 1.94 µM | SN12C 2.54 µM | IGROV-1 1.82 µM | UACC-62 1.76 µM | MDA-MB-231 2.22 µM | NCI-H23 1.74 µM | CAKI-1 1.55 µM | MCF7 1.51 µM | ACHN 3.07 µM | A549 8.49 µM | HCC 2998 1.86 µM | SK-MEL-28 1.78 µM | Malme-3M 2.11 µM | SF-295 8.85 µM | Hs-578T 6.55 µM | OVCAR-5 9.46 µM | SF-268 2.26 µM | UO-31 5.32 µM | PC-3 2.01 µM | DU-145 2.35 µM | UACC-257 1.44 µM | OVCAR-8 1.95 µM | HOP-62 13.1 µM
active: M14 1.1 µM | COLO 205 0.984 µM | CCRF-CEM 0.379 µM | SW-620 0.546 µM | HCT-116 0.596 µM | RPMI-8226 0.385 µM | SR 0.82 µM | HL-60 0.415 µM | SK-MEL-5 1.07 µM | MOLT-4 0.964 µM | LOX IMVI 0.889 µM | NCI-H522 0.841 µM | 786-0 0.817 µM | HT-29 0.875 µM | K562 0.296 µM
1.69 µM: HCT-15
